ChEMBL document CHEMBL3244335 (J Med Chem, 1977)

What was measured:
[1] = Octanol-water partition coefficient, log P of the compound at 37 degC; type: physicochemical
[2] = target: Histamine H2 receptor (Cavia porcellus) (UniProt P47747); assay: Antagonist at histamine H2 receptor in guinea pig atrium assessed as inhibition of histamine-induced response; conditions: Cardiac atrium
[3] = target: Histamine H2 receptor (Rattus norvegicus) (UniProt P25102); assay: Antagonist at histamine H2 receptor in rat uterus assessed as inhibition of histamine-induced response; type: tissue-based
Chain of Histamine H2 receptor (Rattus norvegicus) (P25102 whole entry): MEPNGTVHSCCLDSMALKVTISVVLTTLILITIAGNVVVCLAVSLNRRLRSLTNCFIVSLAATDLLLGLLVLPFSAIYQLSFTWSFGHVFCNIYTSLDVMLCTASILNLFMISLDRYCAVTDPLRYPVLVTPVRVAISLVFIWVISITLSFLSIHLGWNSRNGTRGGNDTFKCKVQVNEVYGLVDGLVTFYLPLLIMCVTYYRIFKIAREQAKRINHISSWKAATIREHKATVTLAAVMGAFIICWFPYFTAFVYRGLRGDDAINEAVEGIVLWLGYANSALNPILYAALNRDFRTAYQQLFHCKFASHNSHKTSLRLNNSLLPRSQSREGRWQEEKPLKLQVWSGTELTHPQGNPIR

[4] = Ionization constant, pKa of the compound; type: physicochemical
[5] = Octanol-water partition coefficient, log P of the compound at pH 9.2; type: physicochemical
[6] = Solubility of the compound in water at 37 degC; type: physicochemical; conditions: buffer
[7] = Ionization constant, pKa of the imidazole ring of the compound; type: physicochemical
[8] = Octanol-water partition coefficient, P of the compound at 37 degC

Chain of Histamine H2 receptor (Cavia porcellus) (P47747 whole entry): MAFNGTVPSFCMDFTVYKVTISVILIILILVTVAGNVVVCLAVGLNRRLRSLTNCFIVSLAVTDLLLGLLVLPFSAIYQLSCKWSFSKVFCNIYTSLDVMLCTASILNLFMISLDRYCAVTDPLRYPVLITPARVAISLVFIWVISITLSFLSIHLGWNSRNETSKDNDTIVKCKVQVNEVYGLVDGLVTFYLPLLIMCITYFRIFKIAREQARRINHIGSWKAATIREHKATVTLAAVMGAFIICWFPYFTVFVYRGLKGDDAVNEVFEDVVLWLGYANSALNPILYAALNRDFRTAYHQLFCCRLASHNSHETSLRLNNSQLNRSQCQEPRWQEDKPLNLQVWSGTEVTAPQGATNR

Q: With `CNC(=S)NC` as the compound, how does the logP [1] read?
A: Its logP is -0.237.

Q: With `CN/C(=N/C#N)NCCCCc1nc[nH]c1C` as the compound, how does the Kb [2] read?
A: Its Kb is 8.1 µM.

Q: What about the Kb [3] of the same compound?
A: Its Kb is 4.9 µM.

Q: For `N#CNC(=N)N`, which pKa [4] is on record?
A: The pKa was -0.4.

Q: And the logP [1]?
A: Its logP is -1.16.

Q: For `CNC(=S)NCCCCc1nc[nH]c1C`, which Kb [2] is on record?
A: The Kb was 8.9 µM.

Q: And the Kb [3]?
A: Its Kb is 10.7 µM.

Q: For `CN/C(=N\C(N)=O)NCCSCc1nc[nH]c1C`, which Kb [2] is on record?
A: Its Kb is 7.1 µM.

Q: And the Kb [3]?
A: Its Kb is 6.9 µM.

Q: With `CNC(=S)NCCSCc1[nH]cnc1C` as the compound, how does the Kb [2] read?
A: Its Kb is 0.92 µM.

Q: And the Kb [3]?
A: The Kb was 0.75 µM.

Q: Which Kb [2] does the source give for `CNC(=O)NCCSCc1[nH]cnc1C` here?
A: The Kb was 22 µM.

Q: What about the Kb [3] of the same compound?
A: The Kb was 7.1 µM.

Q: Which Kb [3] does the source give for `CN/C(=N\CCSCc1nc[nH]c1C)NC#N` here?
A: The Kb was 0.81 µM.

Q: Which Kb [2] does the source give for `CNC(=S)NCCSCc1c[nH]cn1` here?
A: The Kb was 3.2 µM.

Q: And the Kb [3]?
A: The Kb was 3.2 µM.

Q: What does the source list for `CN/C(=N\C#N)NCCCCc1c[nH]cn1`?
A: Kb [2]: 8.3 µM; Kb [3]: 7.1 µM

Q: With `CN/C(=N\C#N)NCCSCc1c[nH]cn1` as the compound, how does the Kb [2] read?
A: Its Kb is 1.4 µM.

Q: What about the Kb [3] of the same compound?
A: Its Kb is 1.6 µM.

Q: With `CN/C(=N/CCSCc1nc[nH]c1C)NC#N` [CIMETIDINE] as the compound, how does the logP [5] read?
A: Its logP is 2.5.

Q: And the solubility [6]?
A: The solubility was 1.14%.

Q: Which pKa [7] does the source give for `C/N=C(\S)NCCSCc1[nH]cnc1C` [METIAMIDE] here?
A: Its pKa is 6.8.

Q: What about the logP ([5]; read-out: logP (converted)) of the same compound?
A: The logP was 0.505.

Q: What about the solubility [6] of the same compound?
A: Its solubility is 0.32%.

Q: What does the source list for `C/N=C(\S)NCCCCc1c[nH]cn1`?
A: Kb [2]: 7.8 µM; Kb [3]: 6.6 µM

Q: With `CNC(=NC#N)NC` as the compound, how does the logP [1] read?
A: Its logP is -0.398.

Q: For `CNC(=N)NCCSCc1nc[nH]c1C`, which Kb [2] is on record?
A: Its Kb is 16 µM.

Q: And the Kb [3]?
A: The Kb was 5.5 µM.

Q: For `NC(N)=S` [THIOUREA], which pKa [4] is on record?
A: Its pKa is -1.2.

Q: And the P [8]?
A: Its P is 0.09.

Q: For `C/N=C(/NCCSCc1[nH]cnc1C)N[N+](=O)[O-]`, which Kb [2] is on record?
A: Its Kb is 1.4 µM.

Q: What about the Kb [3] of the same compound?
A: The Kb was 1.4 µM.

Q: With `N=C(N)N` [GUANIDINE] as the compound, how does the pKa [4] read?
A: Its pKa is 13.6.
